Columns and labels:
5-HT1C receptor = assay: activity at the 5-HT1C receptor; settings: anhydrous Form I
[1] = detection of radiolabelled compound in saliva; type: in vivo
Protocol: For example, in the treatment of adult humans, dosages of from about 0.25 to 50 mg, preferably from 1 to 30 mg, and most preferably 1 to 20 mg per day may be used. A once a day dosage is normally sufficient, although divided doses may be administered. For treatment of a dyskinesia, a dose range of from 1 to 30 mg, preferably 1 to 20 mg per day is suitable.

[2] = tested on: muscarinic cholinergic receptor; assay: pharmacological studies, muscarinic cholinergic receptor activity
rats = assay: in vivo observation in rats exposed to an overdose
clinical subjects = assay: clinical observation of pupils in clinical subjects; type: in vivo

## Cc1cc2c(s1)Nc1ccccc1N=C2N1CCN(C)CC1 [anhydrous Form I compound]
5-HT1C receptor
  activity at the 5-HT1C receptor: active

## Cc1cc2c(s1)Nc1ccccc1N=C2N1CCN(C)CC1
[1]
  detection in the saliva: can be detected in the saliva
[2]
  muscarinic cholinergic receptor activity: has muscarinic cholinergic receptor activity
rats
  salivation: significant salivation
Clinical subjects
  pupilary effect: pupilary constriction rather than the expected pupilary dilation

— patent US5776928A (priority 1995, dated 1998)
